One experiment deals with TRPV1 (Homo sapiens, UniProt Q8NER1). As to conditions: cited from earlier work.
In another experiment the target is TRPV4 (Homo sapiens, UniProt Q9HBA0). As to conditions: common TRP inhibitor; TRPV4 activated by heat (36 to 40° C.) or agonist; cited from earlier work.
Experiment [1] deals with T1, TRPA1 (Mus musculus, UniProt Q8BLA8).
T1 construct: TRPA1 in mouse epidermis was determined to positively immunostained; from tissue; host or cells: skin (epidermis) of living male HR-1 hairless mice
T1 sequence (Q8BLA8 whole entry): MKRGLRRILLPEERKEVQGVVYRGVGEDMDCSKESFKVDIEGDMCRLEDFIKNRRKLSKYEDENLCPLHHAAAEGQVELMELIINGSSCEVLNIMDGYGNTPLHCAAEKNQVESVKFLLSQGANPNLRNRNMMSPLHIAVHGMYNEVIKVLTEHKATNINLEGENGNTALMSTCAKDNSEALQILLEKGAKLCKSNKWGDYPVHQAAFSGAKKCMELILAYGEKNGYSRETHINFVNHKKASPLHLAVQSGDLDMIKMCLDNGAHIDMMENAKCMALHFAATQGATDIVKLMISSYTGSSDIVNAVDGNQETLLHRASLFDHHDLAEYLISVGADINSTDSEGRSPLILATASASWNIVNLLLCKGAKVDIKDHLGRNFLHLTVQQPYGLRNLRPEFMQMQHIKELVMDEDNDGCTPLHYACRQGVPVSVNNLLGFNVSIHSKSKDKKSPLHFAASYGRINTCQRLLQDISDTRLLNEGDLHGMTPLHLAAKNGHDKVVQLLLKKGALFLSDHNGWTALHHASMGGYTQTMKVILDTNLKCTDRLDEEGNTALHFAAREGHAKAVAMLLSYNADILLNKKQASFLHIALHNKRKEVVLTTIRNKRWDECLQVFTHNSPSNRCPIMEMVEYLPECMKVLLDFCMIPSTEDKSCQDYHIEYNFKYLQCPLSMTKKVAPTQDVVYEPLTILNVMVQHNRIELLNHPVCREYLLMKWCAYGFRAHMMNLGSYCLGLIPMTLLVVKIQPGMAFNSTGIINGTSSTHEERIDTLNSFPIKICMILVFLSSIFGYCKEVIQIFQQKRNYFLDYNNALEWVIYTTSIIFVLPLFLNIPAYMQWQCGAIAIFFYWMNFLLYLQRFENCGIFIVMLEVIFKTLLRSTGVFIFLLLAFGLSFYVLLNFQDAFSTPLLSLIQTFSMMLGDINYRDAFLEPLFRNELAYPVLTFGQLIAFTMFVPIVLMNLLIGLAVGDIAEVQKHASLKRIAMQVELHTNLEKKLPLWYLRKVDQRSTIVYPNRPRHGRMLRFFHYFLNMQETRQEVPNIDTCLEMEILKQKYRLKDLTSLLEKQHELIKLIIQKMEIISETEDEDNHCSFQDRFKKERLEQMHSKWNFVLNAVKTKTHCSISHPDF
The experiment can be described thus: Barrier recovery after tape stripping, measured by transepidermal water loss (TEWL). As to conditions: for Barrier recovery (TEWL recovery rate): local application of 100 μl of 0.5 mM agonist solution immediately after tape stripping. The experiment is classed as in vivo, hairless mice.
Procedure: Male hairless mice age 7 to 10 weeks (HR-1, Hoshino Laboratory Animals, Inc., Japan) were used in all experiments. Measurement of skin barrier function, barrier destruction and application of test samples were carried out while the animals were anesthetized with Nembutal.
Permeability barrier function was evaluated on the basis of measurement results for transepidermal water loss (TEWL) obtained using an electrical moisture analyzer (Meeco Inc.) in the manner previously described (Denda, et al., J. Invest. Dermatol., 111, 858-863 (1998): Non-Patent Document 10). In the barrier recovery experiment, treatment was carried out on the animals consisting of repeatedly carrying out tape stripping on skin on both sides of the abdomen until TEWL reached 7 to 10 mg/cm^2/hr. The effects of each treatment were investigated by measuring at two locations on the sides of the abdomen using four mice. Next, TEWL values at the same sites were measured at 1, 3, 6 and 24 hours after barrier destruction. In order to avoid the effects of circadian rhythm, the speed of barrier recovery was investigated immediately after destroying the skin barrier between the hours of 7:00 AM and 8:00 AM. The results for barrier recovery were expressed in terms of recovery rate (%). This is because the degree of barrier destruction varies from day to day. Recovery rate was calculated for each mouse using the following formula:
[(TEWL immediately after barrier destruction−TEWL at indicated time)/(TEWL immediately after barrier destruction−TEWL basal value)]×100%
The effects of TRPA1 agonist on undamaged skin of hairless mice were first evaluated. The skin permeability barrier was destroyed by tape stripping followed immediately thereafter by application of 100 μl of agonist solution. […] Next, the surface of the skin on one side of the abdomen was chilled (10 to 15° C.) for 1 minute using a cold insulator. The other side of the abdomen was maintained at 35 to 36° C. using a heating pad. The temperatures of both sides of the abdomen were monitored with a thermometer (Data Logger Thermometer MT-309, Mother Tool Co., Ltd.).

For experiment [2], the target named is T1, TRPA1. Briefly: Electron microscopy of lamellar body secretion between stratum corneum and stratum granulosum. As to conditions: pretreatment with antagonist; short exposure to low temperature; FIG. 4c. It counts as in vivo, hairless mice.

Chain of TRPV1 (Q8NER1 whole entry, species assumed): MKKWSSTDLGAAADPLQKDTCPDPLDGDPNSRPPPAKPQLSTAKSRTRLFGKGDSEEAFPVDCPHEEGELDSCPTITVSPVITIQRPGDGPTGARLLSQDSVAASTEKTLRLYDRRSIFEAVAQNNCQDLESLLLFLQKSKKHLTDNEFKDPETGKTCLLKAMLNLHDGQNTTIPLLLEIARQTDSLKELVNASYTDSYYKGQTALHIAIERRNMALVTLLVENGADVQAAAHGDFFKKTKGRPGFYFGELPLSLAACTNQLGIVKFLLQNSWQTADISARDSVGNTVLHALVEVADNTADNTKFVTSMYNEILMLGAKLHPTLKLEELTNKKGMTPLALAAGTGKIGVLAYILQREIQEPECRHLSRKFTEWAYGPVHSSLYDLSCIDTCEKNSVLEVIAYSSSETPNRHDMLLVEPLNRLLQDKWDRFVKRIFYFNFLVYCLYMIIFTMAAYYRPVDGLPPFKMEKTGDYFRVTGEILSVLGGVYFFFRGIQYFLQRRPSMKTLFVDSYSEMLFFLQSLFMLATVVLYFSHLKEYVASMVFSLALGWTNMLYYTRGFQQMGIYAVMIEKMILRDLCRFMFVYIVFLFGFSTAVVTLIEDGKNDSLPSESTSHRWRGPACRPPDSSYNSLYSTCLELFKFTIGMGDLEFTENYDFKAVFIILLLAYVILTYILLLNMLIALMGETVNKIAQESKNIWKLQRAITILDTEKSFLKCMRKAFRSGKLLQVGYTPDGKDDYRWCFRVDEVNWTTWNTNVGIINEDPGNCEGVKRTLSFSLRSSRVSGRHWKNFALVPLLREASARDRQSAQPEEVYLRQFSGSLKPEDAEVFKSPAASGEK
Chain of TRPV4 (Q9HBA0 whole entry, species assumed): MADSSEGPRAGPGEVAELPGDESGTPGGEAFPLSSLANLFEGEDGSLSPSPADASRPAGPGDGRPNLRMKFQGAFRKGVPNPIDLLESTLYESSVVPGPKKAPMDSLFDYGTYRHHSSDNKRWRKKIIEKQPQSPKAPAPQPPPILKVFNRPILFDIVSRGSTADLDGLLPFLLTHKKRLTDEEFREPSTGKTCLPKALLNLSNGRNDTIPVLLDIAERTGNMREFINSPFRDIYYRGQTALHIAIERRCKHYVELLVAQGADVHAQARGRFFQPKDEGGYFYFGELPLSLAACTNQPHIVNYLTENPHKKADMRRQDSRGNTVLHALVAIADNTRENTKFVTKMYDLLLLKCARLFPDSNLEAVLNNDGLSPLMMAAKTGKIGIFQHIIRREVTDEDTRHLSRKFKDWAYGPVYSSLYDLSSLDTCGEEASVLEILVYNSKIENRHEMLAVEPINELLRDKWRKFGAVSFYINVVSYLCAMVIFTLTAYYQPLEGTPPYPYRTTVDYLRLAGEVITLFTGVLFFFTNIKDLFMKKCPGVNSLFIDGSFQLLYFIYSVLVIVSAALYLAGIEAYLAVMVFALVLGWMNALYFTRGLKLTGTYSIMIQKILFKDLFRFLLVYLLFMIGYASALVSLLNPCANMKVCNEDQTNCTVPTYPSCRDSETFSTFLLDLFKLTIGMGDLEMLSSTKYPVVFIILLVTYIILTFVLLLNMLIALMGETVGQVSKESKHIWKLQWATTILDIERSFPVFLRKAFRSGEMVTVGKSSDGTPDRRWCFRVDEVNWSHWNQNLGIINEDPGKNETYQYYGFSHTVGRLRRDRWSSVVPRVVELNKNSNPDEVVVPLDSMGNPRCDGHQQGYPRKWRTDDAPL

Take `Oc1cc2c(cc1O)CN(C(=S)NCCc1ccc(Cl)cc1)CCC2` [capsazepine]: the “Effect on delay of barrier repair caused by TRPV1 activation” value on TRPV1 (TRPV1 antagonist) is recorded as “inhibited”.

With `N.N.N.N.N.N.N.N.N.N.N.N.N.N.[Cl-].[Cl-].[Cl-].[Cl-].[Cl-].[Cl-].[O-2].[O-2].[Ru+3].[Ru+3].[Ru+4]` [ruthenium red], the “Effect on barrier repair acceleration by TRPV4 activation” value on TRPV4 is recorded as “inhibited”.

With `CC(C)c1ccc(NC(=O)Cn2cnc3c2c(=O)n(C)c(=O)n3C)cc1` [HC030031, 2-(1,3-dimethyl-2,6-dioxo-1,2,3,6-tetrahydro-7H-purin-7-yl)-N-(4-isopropylphenyl)acetoamide], on TRPA1 [1] (pretreatment with 50 μM antagonist, FIG. 1), the “Effect on barrier recovery acceleration by allyl isothiocyanate or cinnamaldehyde” value was “inhibited”. Besides, the “Effect on barrier recovery acceleration by 1 minute of cooling (10 to 15° C.)” value at TRPA1 [1] (pretreatment with antagonist, FIG. 2) was “inhibited”. The “Effect on low-temperature-accelerated secretion of lamellar bodies” value on TRPA1 [2] was “inhibited”.

With `C=CCN=C=S` [allyl isothiocyanate], the “Barrier recovery (TEWL recovery rate)” value at TRPA1 [1] (FIG. 1) is reported as “accelerated”.

`COc1cc(CNC(=O)CCCC/C=C/C(C)C)ccc1O` [capsaicin]: on TRPV1 (TRPV1 activated after destroying the skin barrier), the “Repair of the skin barrier” value is given as “delayed”.

In the case of `O=CC=Cc1ccccc1` [cinnamaldehyde], the “Barrier recovery (TEWL recovery rate)” value at TRPA1 [1] (FIG. 1) is reported as “accelerated”.

The values above are taken from patent publication US20120148690A1, “SKIN BARRIER FUNCTION RECOVERY ACCELERATOR” (SHISEIDO COMPANY, LTD., priority 2010, published 2012).
